The target in test [1] is T1, human PTHR, G protein-uncoupled conformation (R^0) (Homo sapiens, UniProt Q03431).
T1 construct: expressed in transfected cells; host or cells: COS-7, transient (Fugene-6)
T1 sequence (Q03431 27-593): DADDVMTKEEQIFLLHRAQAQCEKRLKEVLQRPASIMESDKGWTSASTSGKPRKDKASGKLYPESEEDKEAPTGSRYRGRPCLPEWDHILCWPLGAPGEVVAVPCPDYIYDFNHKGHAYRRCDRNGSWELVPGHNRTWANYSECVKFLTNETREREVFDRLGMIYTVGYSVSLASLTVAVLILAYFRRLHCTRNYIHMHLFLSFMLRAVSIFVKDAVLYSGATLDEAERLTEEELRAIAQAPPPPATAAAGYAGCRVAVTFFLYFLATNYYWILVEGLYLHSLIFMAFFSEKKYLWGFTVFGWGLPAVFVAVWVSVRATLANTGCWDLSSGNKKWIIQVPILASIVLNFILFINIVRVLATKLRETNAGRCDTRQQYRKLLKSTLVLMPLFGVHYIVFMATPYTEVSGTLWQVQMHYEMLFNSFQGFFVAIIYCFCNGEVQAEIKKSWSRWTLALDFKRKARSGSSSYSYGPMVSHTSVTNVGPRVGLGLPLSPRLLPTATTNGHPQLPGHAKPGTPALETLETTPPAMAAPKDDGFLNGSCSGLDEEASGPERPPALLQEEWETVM
In words: Competition binding to R0 conformation of hPTHR (COS-7 membranes, GTPγS, 125I-PTH(1-34) tracer). Conditions: human PTH receptor on COS-7 cell membranes. The protocol: Membranes were prepared from COS-7 cells transfected with the hPTHR alone. GTPγS ([…]) was added to the binding reactions so as to functionally uncouple receptor-heterotrimeric G protein complexes, thus enriching for the R^0 (and R) conformations, relative to RG.
Reactions contained a total membrane protein concentration of 20 to 100 μg/mL, and a total radioactivity concentration of approximately 150,000 cpm/ml. Unlabeled peptide ligands and/or GTPγS (Sigma-Aldrich Inc. St. Louis, Mo.) were added to the reactions as indicated.
Membranes, tracer radioligand, and various concentrations of unlabeled ligands and/or GTPγS were incubated in the wells for 90 minutes, following which, the reaction plates were processed by rapid vacuum filtration to separate bound from free radioligand, as described above. […] For both radioligands, the non-specific binding was determined in reactions containing a saturating concentration of the unlabeled analog of the radioligand. The specifically bound radioactivity was calculated as a percent of the radioactivity specifically bound in the absence of a competing ligand or GTPγS.
To assess the capacities of various unlabeled peptide ligands to bind to the G protein-uncoupled and G protein-coupled PTHR conformations (R^0 and RG, respectively), membranes were prepared from transiently transfected COS-7 cells and the following assay conditions.

Test [2] deals with LLCPK1-B64 cells or SaOS-2 cells. In words: cAMP screen of substituted PTHrP(1-28) analogs (% parent). It is filed as cell-based. The following applies: parent PTHrP(1-28)NH. How it is done: Alanine substitution at position 18, 22, 25 and 26 increased activity in at least one cell type. These positions were further substituted to various types of amino acids, and cAMP activity was analyzed in LLCPK1-B64 cells (FIG. 27C) or SaOS-2 cells (FIG. 27D). Cells were treated with analogs at 3×10^−9M in the presence of IBMX for 30 minutes at room temperature. Responses for each analog were normalized to the response for the parent (native) PTHrP(1-28) peptide. Alanine substitutions were A^15 to A^17 (SEQ ID NO:152-154), A^18 (SEQ ID NO:34), A^19 to A^21 (SEQ ID NO:155-157), A^22 (SEQ ID NO:39), A^23 to A^25 (SEQ ID NO:158-160), A^26 (SEQ ID NO:46), and A^27 to A^28 (SEQ ID NO:161-162). Substitutions at position 18 were A^18 (SEQ ID NO: 34), G^18 (SEQ ID NO:163), S^18 (SEQ ID NO:35), M^18 (SEQ ID NO:36), L^18 (SEQ ID NO:164), F^18 (SEQ ID NO:37), N^18 (SEQ ID NO:165), E^18 (SEQ ID NO:38), and K^18 (SEQ ID NO:166). Substitutions at position 22 were A^22 (SEQ ID NO:39), G^22 (SEQ ID NO:167), and S^22 to K^22 (SEQ ID NO:40-45). Substitutions at position 26 were A^26 (SEQ ID NO:46), G^26 (SEQ ID NO:168), S^26 (SEQ ID NO:47), L^26 (SEQ ID NO:169), N^26 (SEQ ID NO:48), W^26 to E^26 (SEQ ID NO:170-171), and K^26 to R^26 (SEQ ID NO:49-50). Substitutions at position 25 were G^25 to S^25 (SEQ ID NO:172-173), L^25 (SEQ ID NO:51), N^25 (SEQ ID NO:174), W^25 (SEQ ID NO:52), E^25 (SEQ ID NO:175), and K^25 to R^25 (SEQ ID NO:53-54). […]

Ends that are not written are not given here. Peptide text beside a SMILES is read from it.

Consider `CC[C@H](C)[C@H](NC(=O)[C@H](CCC(=O)O)NC(=O)[C@H](C)NC(=O)[C@@H](NC(=O)[C@H](C)N)C(C)C)C(=O)N[C@@H](CCC(N)=O)C(=O)N[C@@H](CC(C)C)C(=O)N[C@@H](CCSC)C(=O)N[C@@H](Cc1c[nH]cn1)C(=O)N[C@@H](CCC(N)=O)C(=O)N[C@@H](CCCNC(=N)N)C(=O)N[C@@H](C)C(=O)N[C@@H](CCCCN)C(=O)N[C@@H](Cc1c[nH]c2ccccc12)C(=O)N[C@@H](CC(C)C)C(=O)N[C@@H](CC(N)=O)C(=O)N[C@@H](CO)C(=O)N[C@@H](CCSC)C(=O)N[C@@H](CCCNC(=N)N)C(=O)N[C@@H](C)C(=O)N[C@H](C(=O)N[C@@H](CCC(=O)O)C(=O)N[C@@H](Cc1c[nH]c2ccccc12)C(=O)N[C@@H](CC(C)C)C(=O)N[C@@H](CCCNC(=N)N)C(=O)N[C@@H](CCCCN)C(=O)N[C@@H](CCCCN)C(=O)N[C@@H](CC(C)C)C(=O)N[C@@H](CCC(N)=O)C(=O)N[C@@H](CC(=O)O)C(=O)N[C@H](C(=O)N[C@@H](Cc1c[nH]cn1)C(=O)N[C@@H](CC(N)=O)C(=O)N[C@@H](Cc1ccccc1)C(=O)O)C(C)C)C(C)C` [A20,Mc-PTH(1-34)OH, A^20,Mc-PTH(1-34)OH] (H-AVAEIQLMHQRAKWLNSMRAVEWLRKKLQDVHNF-OH; N-terminus assumed), for which the R0/RG ratio in test [1] turned out to be 80.

As for “A18,22,F25,K26-PTHrP(1-28) (AVSEHQLLHDKGKSIQDARRRAFLFKLI-NH2) [A18, 22, F25, K26-PTHrP(1-28)NH]”, the “screen cAMP (% parent)” value in test [2] is 337 % parent.

With “A18,22,I25,K26-PTHrP(1-28) (AVSEHQLLHDKGKSIQDARRRAFLIKLI-NH2) [A18, 22, I25, K26-PTHrP(1-28)NH]”, the “screen cAMP (% parent)” value in test [2] worked out at 342 % parent.

Regarding “A18,22,W25,K26-PTHrP(1-28) (AVSEHQLLHDKGKSIQDARRRAFLWKLI-NH2) [A18, 22, W25, K26-PTHrP(1-28)NH]”, in test [2], the “screen cAMP (% parent)” value was determined as 329 % parent.

As to “A18-PTHrP(1-28) (AVSEHQLLHDKGKSIQDARRRFFLHHLI-NH2) [A18-PTHrP(1-28)NH]”, the “screen cAMP (% parent)” value in test [2] was found to be 164 % parent.

For the compound “A22-PTHrP(1-28) (AVSEHQLLHDKGKSIQDLRRRAFLHHLI-NH2) [A22-PTHrP(1-28)NH]”, in test [2], the “screen cAMP (% parent)” value turned out to be 185 % parent.

Take “A26-PTHrP(1-28) (AVSEHQLLHDKGKSIQDLRRRFFLHALI-NH2) [A26-PTHrP(1-28)NH]”: the “screen cAMP (% parent)” value in test [2] is 142 % parent.

On to “E18,A22,26-PTHrP(1-28) (AVSEHQLLHDKGKSIQDERRRAFLHALI-NH2) [E18, A22, 26-PTHrP(1-28)NH]”, for which the “screen cAMP (% parent)” value in test [2] is listed as 190 % parent.

“E18,S22,K25,26-PTHrP(1-28) (AVSEHQLLHDKGKSIQDERRRSFLKKLI-NH2) [E18, S22, K25, 26-PTHrP(1-28)NH]”: in test [2], the “screen cAMP (% parent)” value came to 335 % parent.

Take “E18-PTHrP(1-28) (AVSEHQLLHDKGKSIQDERRRFFLHHLI-NH2) [E18-PTHrP(1-28)NH]”: the “screen cAMP (% parent)” value in test [2] came out at 140 % parent.

Regarding “E22-PTHrP(1-28) (AVSEHQLLHDKGKSIQDLRRREFLHHLI-NH2) [E22-PTHrP(1-28)NH]”, the “screen cAMP (% parent)” value in test [2] is recorded as 121 % parent.

Take “F18-PTHrP(1-28) (AVSEHQLLHDKGKSIQDFRRRFFLHHLI-NH2) [F18-PTHrP(1-28)NH]”: in test [2], the “screen cAMP (% parent)” value stood at 109 % parent.

As for “K22-PTHrP(1-28) (AVSEHQLLHDKGKSIQDLRRRKFLHHLI-NH2) [K22-PTHrP(1-28)NH]”, the “screen cAMP (% parent)” value in test [2] stood at 150 % parent.

Turning to “K25-PTHrP(1-28) (AVSEHQLLHDKGKSIQDLRRRFFLKHLI-NH2) [K25-PTHrP(1-28)NH]”, the “screen cAMP (% parent)” value in test [2] worked out at 163 % parent.

For the compound “K26-PTHrP(1-28) (AVSEHQLLHDKGKSIQDLRRRFFLHKLI-NH2) [K26-PTHrP(1-28)NH]”, the “screen cAMP (% parent)” value in test [2] came to 142 % parent.

As to “L22-PTHrP(1-28) (AVSEHQLLHDKGKSIQDLRRRLFLHHLI-NH2) [L22-PTHrP(1-28)NH]”, the “screen cAMP (% parent)” value in test [2] came to 142 % parent.

As to “L25-PTHrP(1-28) (AVSEHQLLHDKGKSIQDLRRRFFLLHLI-NH2) [L25-PTHrP(1-28)NH]”, the “screen cAMP (% parent)” value in test [2] turned out to be 325 % parent.

Consider “M18-PTHrP(1-28) (AVSEHQLLHDKGKSIQDMRRRFFLHHLI-NH2) [M18-PTHrP(1-28)NH]”, for which the “screen cAMP (% parent)” value in test [2] came out at 113 % parent.

As to “N22-PTHrP(1-28) (AVSEHQLLHDKGKSIQDLRRRNFLHHLI-NH2) [N22-PTHrP(1-28)NH]”, the “screen cAMP (% parent)” value in test [2] is on record as 138 % parent.

In the case of “N26-PTHrP(1-28) (AVSEHQLLHDKGKSIQDLRRRFFLHNLI-NH2) [N26-PTHrP(1-28)NH]”, the “screen cAMP (% parent)” value in test [2] is 113 % parent.

With “R25-PTHrP(1-28) (AVSEHQLLHDKGKSIQDLRRRFFLRHLI-NH2) [R25-PTHrP(1-28)NH]”, the “screen cAMP (% parent)” value in test [2] was 204 % parent.

For the compound “R26-PTHrP(1-28) (AVSEHQLLHDKGKSIQDLRRRFFLHRLI-NH2) [R26-PTHrP(1-28)NH]”, the “screen cAMP (% parent)” value in test [2] came to 143 % parent.

For the compound “S18-PTHrP(1-28) (AVSEHQLLHDKGKSIQDSRRRFFLHHLI-NH2) [S18-PTHrP(1-28)NH]”, in test [2], the “screen cAMP (% parent)” value is listed as 121 % parent.

Take “S22-PTHrP(1-28) (AVSEHQLLHDKGKSIQDLRRRSFLHHLI-NH2) [S22-PTHrP(1-28)NH]”: the “screen cAMP (% parent)” value in test [2] worked out at 141 % parent.

With “S26-PTHrP(1-28) (AVSEHQLLHDKGKSIQDLRRRFFLHSLI-NH2) [S26-PTHrP(1-28)NH]”, the “screen cAMP (% parent)” value in test [2] was determined as 107 % parent.

On to “W22-PTHrP(1-28) (AVSEHQLLHDKGKSIQDLRRRWFLHHLI-NH2) [W22-PTHrP(1-28)NH]”, for which the “screen cAMP (% parent)” value in test [2] was found to be 129 % parent.

In the case of “W25-PTHrP(1-28) (AVSEHQLLHDKGKSIQDLRRRFFLWHLI-NH2) [W25-PTHrP(1-28)NH]”, in test [2], the “screen cAMP (% parent)” value came out at 270 % parent.

Values taken from US9057727B2, “Screening methods using G-protein coupled receptors and related compositions” (The General Hospital Corporation, priority 2007, dated 2015).
